Experimental data reported in patent publication US20240376084A1, “INHIBITORS OF ALPHA-HEMOLYSIN OF STAPHYLOCOCCUS AUREUS” (Helmholtz-Zentrum Fur Infektionsforschung GmbH, priority 2021, published 2024).

Experiments:
[1] = molecular target: hemolysin alpha from Staphylococcus aureus (Staphylococcus aureus, UniProt P09616); assay: cell-based
[2] = molecular target: S. aureus Alpha hemolysin (Staphylococcus aureus, UniProt P09616); assay: cell-based; details: A549-LDH Assay activity
Sequence of S. aureus Alpha hemolysin (P09616 27-319 limits assumed): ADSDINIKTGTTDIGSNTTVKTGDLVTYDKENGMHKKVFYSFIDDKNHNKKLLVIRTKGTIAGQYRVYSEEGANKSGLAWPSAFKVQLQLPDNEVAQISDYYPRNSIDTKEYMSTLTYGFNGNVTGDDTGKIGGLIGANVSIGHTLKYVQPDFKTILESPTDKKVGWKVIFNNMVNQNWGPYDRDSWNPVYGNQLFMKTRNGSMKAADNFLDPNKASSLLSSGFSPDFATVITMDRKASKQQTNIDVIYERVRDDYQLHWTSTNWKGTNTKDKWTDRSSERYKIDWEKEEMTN

Sequence of hemolysin alpha from Staphylococcus aureus (P09616 27-319 limits assumed): as above

SMILES: CC(=O)c1cccc(-c2ccc(NS(=O)(=O)c3cc4[nH]c(=O)c(=O)[nH]c4cc3C)cc2Cl)c1 [Compound 249, N-[4-(3-acetylphenyl)-3-chloro-phenyl]-7-methyl-2,3-dioxo-1,4-dihydroquinoxaline-6-sulfonamide]
- EC50 [1]: < 0.03 µM
- EC50 [2]: 0.1 to 1 µM

SMILES: Cc1cc2[nH]c(=O)c(=O)[nH]c2cc1S(=O)(=O)Nc1ccc(-c2cccc(C#N)c2)c(Cl)c1 [Compound 318, N-[3-chloro-4-(3-cyanophenyl)phenyl]-7-methyl-2,3-dioxo-1,4-dihydroquinoxaline-6-sulfonamide]
- EC50 [1]: 0.03 to 0.1 µM
- EC50 [2]: 0.1 to 1 µM

SMILES: O=c1[nH]c2cc(Cl)c(S(=O)(=O)Nc3ccc(C4CCCCC4)cc3)cc2[nH]c1=O [Compound 170, 7-chloro-N-(4-cyclohexylphenyl)-2,3-dioxo-1,2,3,4-tetrahydroquinoxaline-6-sulfonamide]
- IC50 [1]: 0.1 to 1 µM
- EC50 [2]: 0.1 to 1 µM

SMILES: O=c1[nH]c2cc(OC(F)(F)F)c(S(=O)(=O)Nc3ccc(-c4ccc(F)cc4)c(Cl)c3)cc2[nH]c1=O [Compound 197, N-(2-chloro-4′-fluoro-[1,1′-biphenyl]-4-yl)-2,3-dioxo-7-(trifluoromethoxy)-1,2,3,4-tetrahydroquinoxaline-6-sulfonamide]
- EC50 [1]: 1 to 3.5 µM
- EC50 [2]: 1 to 6 µM

SMILES: Cc1cc2[nH]c(=O)c(=O)[nH]c2cc1S(=O)(=O)Nc1ccc(N2CCOC[C@H]2C)c(Cl)c1 [Compound 243, (R)-N-(3-chloro-4-(3-methylmorpholino)phenyl)-7-methyl-2,3-dioxo-1,2,3,4-tetrahydroquinoxaline-6-sulfonamide]
- EC50 [1]: 1 to 3.5 µM
- EC50 [2]: 0.1 to 1 µM

SMILES: Cc1cc2[nH]c(=O)c(=O)[nH]c2cc1S(=O)(=O)Nc1ccc(-c2ccc(C(N)=O)cc2)c(Cl)c1 [Compound 314, 4-[2-chloro-4-[(7-methyl-2,3-dioxo-1,4-dihydroquinoxalin-6-yl)sulfonylamino]phenyl]benzamide]
- EC50 [1]: 0.1 to 1 µM
- EC50 [2]: 0.1 to 1 µM

SMILES: Cc1cc2[nH]c(=O)c(=O)[nH]c2cc1S(=O)(=O)Nc1ccc(-c2ccnc(Cl)c2)c(Cl)c1 [Compound 30, N-(3-chloro-4-(2-chloropyridin-4-yl)phenyl)-7-methyl-2,3-dioxo-1,2,3,4-tetrahydroquinoxaline-6-sulfonamide]
- IC50 [1]: < 0.03 µM
- EC50 [2]: 0.03 to 0.1 µM

SMILES: O=c1[nH]c2cc(F)c(S(=O)(=O)Nc3ccc(-c4ccccc4F)c(Cl)c3)cc2[nH]c1=O [Compound 36, N-(2-chloro-2′-fluoro-[1,1′-biphenyl]-4-yl)-7-fluoro-2,3-dioxo-1,2,3,4-tetrahydroquinoxaline-6-sulfonamide]
- IC50 [1]: < 0.03 µM
- EC50 [2]: 0.1 to 1 µM

SMILES: Cc1cc2[nH]c(=O)c(=O)[nH]c2cc1S(=O)(=O)Nc1ccc(-c2ccc3cc[nH]c3c2)c(C(F)(F)F)c1 [Compound 369, N-[4-(1H-indol-6-yl)-3-(trifluoromethyl)phenyl]-7-methyl-2,3-dioxo-1,4-dihydroquinoxaline-6-sulfonamide]
- EC50 [1]: < 0.03 µM
- EC50 [2]: 0.03 to 0.1 µM

SMILES: Cc1cc2[nH]c(=O)c(=O)[nH]c2cc1S(=O)(=O)Nc1ccc(-c2cc(Cl)cc(Cl)c2)c(Cl)c1 [Compound 315, N-[3-chloro-4-(3,5-dichlorophenyl)phenyl]-7-methyl-2,3-dioxo-1,4-dihydroquinoxaline-6-sulfonamide]
- EC50 [1]: 0.1 to 1 µM
- EC50 [2]: 1 to 6 µM

SMILES: Cc1nc2ccc(-c3ccc(NS(=O)(=O)c4cc5[nH]c(=O)c(=O)[nH]c5cc4C)cc3Cl)cc2[nH]1 [Compound 361, N-[3-chloro-4-(2-methyl-3H-benzimidazol-5-yl)phenyl]-7-methyl-2,3-dioxo-1,4-dihydroquinoxaline-6-sulfonamide]
- EC50 [1]: 0.03 to 0.1 µM
- EC50 [2]: < 0.03 µM

SMILES: Cc1cc2[nH]c(=O)c(=O)[nH]c2cc1S(=O)(=O)Nc1ccc(C2CCCCC2)c(Cl)c1 [Compound 284, N-(3-chloro-4-cyclohexyl-phenyl)-7-methyl-2,3-dioxo-1,4-dihydroquinoxaline-6-sulfonamide]
- EC50 [1]: 0.03 to 0.1 µM
- EC50 [2]: 0.1 to 1 µM

SMILES: Cc1cc2[nH]c(=O)c(=O)[nH]c2cc1S(=O)(=O)Nc1ccc(-c2ccc3cccnc3c2)c(C(F)(F)F)c1 [Compound 365, 7-methyl-2,3-dioxo-N-[4-(7-quinolyl)-3-(trifluoromethyl)phenyl]-1,4-dihydroquinoxaline-6-sulfonamide]
- EC50 [1]: < 0.03 µM
- EC50 [2]: 0.1 to 1 µM

SMILES: Cc1cc2[nH]c(=O)c(=O)[nH]c2cc1S(=O)(=O)Nc1ccc2c(c1)CCC2 [Compound 79, N-(2,3-dihydro-1H-inden-5-yl)-7-methyl-2,3-dioxo-1,2,3,4-tetrahydroquinoxaline-6-sulfonamide]
- IC50 [1]: 0.1 to 1 µM
- EC50 [2]: 0.03 to 0.1 µM

SMILES: Cc1ccc(-c2c(C)cc(NS(=O)(=O)c3cc4[nH]c(=O)c(=O)[nH]c4cc3C)cc2C)s1 [Compound 70, N-(3,5-dimethyl-4-(5-methylthiophen-2-yl)phenyl)-7-methyl-2,3-dioxo-1,2,3,4-tetrahydroquinoxaline-6-sulfonamide]
- IC50 [1]: 0.03 to 0.1 µM
- EC50 [2]: 0.1 to 1 µM
